Columns and labels:
Type in all cases: cell-based
Aspergillus flavus = test: Antifungal paper disk test, diameter of clear zone; conditions: for zone of inhibition at 100 µg/disc: read-out: Diameter (mm) of clear Zone A. flavus
Description: (§1) Sulfur compounds were tested for antifungal activity against pure cultures of Aspergillus niger and Aspergillus flavus supplied by Ward's Natural Science Ltd (St. Catharines, Ontario, Canada). They were maintained on Sabouraud Dextrose Agar.
(§2) For the test, 6 agar plugs (5 mm diameter) were cut from a 5-8 day old colony and homogenized in distilled, sterilized water (2 ml). A portion of this suspension (0.5 ml) was transferred aseptically to a Petri plate with Sabouraud Dextrose Agar (15 ml) and spread evenly over the entire surface. […] Each test compound was applied to the disks as a solution (50 mg compound/10 ml acetone). Control disks were treated with neat acetone (20 μl). Test plates with fungal homogenates and disks were incubated at 18-20° C. for 2 days. For each test four replicate plates were used. The diameter of the clear zone surrounding the disk was taken as the indicator of antifungal activity.

Aspergillus niger = test: Antifungal paper disk test, diameter of clear zone; conditions: for zone of inhibition at 100 µg/disc: read-out: Diameter (mm) of clear Zone A. niger
Description: as §1, §2

[1] = tested on: Aspergillus niger and Aspergillus flavus; test: Antifungal activity; conditions: in words; for Antifungal activity: dose not given
Description: as §1
For the test, 6 agar plugs (5 mm diameter) were cut from a 5-8 day old colony and homogenized in distilled, sterilized water (2 ml). A portion of this suspension (0.5 ml) was transferred aseptically to a Petri plate with Sabouraud Dextrose Agar (15 ml) and spread evenly over the entire surface. Each plate was supplied with four evenly spaced paper disks (7 mm, Whatman Number 1 filter paper) containing the test compound (0, 25, 50 and 100 μg respectively). Each test compound was applied to the disks as a solution (50 mg compound/10 ml acetone). Control disks were treated with neat acetone (20 μl). Test plates with fungal homogenates and disks were incubated at 18-20° C. for 2 days. For each test four replicate plates were used. The diameter of the clear zone surrounding the disk was taken as the indicator of antifungal activity.

[2] = 0.25 μg/disk, Appl'n Solvent Acetone
[3] = Aspergillus flavus, 25 μg/disk, acetone
[4] = Aspergillus niger, 25 μg/disk, acetone
[5] = Aspergillus flavus, 100 μg/disk, acetone
[6] = Aspergillus niger, 100 μg/disk, acetone

Molecule: 1-p-toluenesulfonyl-4-propionoxy-2,3-dithiabutane [C2H5OC(O)CH2SSCH2SO2(C6H4)—p-CH3]
- Diameter (mm) of clear Zone A. flavus (Aspergillus flavus; [2]): 5.2 mm
- Diameter (mm) of clear Zone A. niger (Aspergillus niger; [2]): 8.5 mm

Molecule: O=S(=O)(Sc1ccccc1)c1ccccc1 [(C6H5)SO2S(C6H5)]
- Diameter (mm) of clear Zone A. flavus (Aspergillus flavus; 25 μg/disk, acetone): 3.8 mm
- Diameter (mm) of clear Zone A. niger (Aspergillus niger; 25 μg/disk, acetone): 3.9 mm

Molecule: CSCSSCSC [(CH3SCH2S)2, reference compound]
- Diameter (mm) of clear Zone A. flavus (Aspergillus flavus; 100 μg/disk, acetone): 2.3 mm
- Diameter (mm) of clear Zone A. niger (Aspergillus niger; 100 μg/disk, acetone): 2.5 mm

Molecule: CSSCS(=O)(=O)c1ccccc1 [C6H5SO2CH2SSCH3, α-phenylsulfonyl dimethyl disulphide]
- Diameter (mm) of clear Zone A. flavus (Aspergillus flavus; 25 μg/disk, acetone): 4.2 mm
- Diameter (mm) of clear Zone A. niger (Aspergillus niger; 25 μg/disk, acetone): 5.5 mm

Molecule: CCC(=O)OCSSC [CH3CH2C(O)OCH2SSCH3, 2,3-dithiabutyl propionate]
- zone of inhibition at 25 µg/disc (Aspergillus flavus; [3]): 7.6 mm
- zone of inhibition at 25 µg/disc (Aspergillus niger; [4]): 14.8 mm

Molecule: CCS(=O)(=O)SC [CH3CH2SO2SCH3, Methyl Ethanethiosulfonate]
- Diameter (mm) of clear Zone A. flavus (Aspergillus flavus; 50 μg/disk, acetone): 1.3 mm
- Diameter (mm) of clear Zone A. niger (Aspergillus niger; 50 μg/disk, acetone): 2.0 mm

Molecule: CCC(=O)OCSSCC(=O)OC [CH3OC(O)CH2SSCH2OC(O)C2H5, methyl 3,4-dithia-5-propionoxypentanoate]
- zone of inhibition at 0.25 µg/disc (Aspergillus flavus; Aspergillus flavus, 0.25 μg/disk, Appl'n Solvent Acetone): 2.3 mm
- zone of inhibition at 0.25 µg/disc (Aspergillus flavus; Aspergillus flavus, 0.25 μg/disk, Appl'n Solvent DMSO): 7.9 mm
- zone of inhibition at 0.25 µg/disc (Aspergillus niger; Aspergillus niger, 0.25 μg/disk, Appl'n Solvent Acetone): 3 mm
- zone of inhibition at 0.25 µg/disc (Aspergillus niger; Aspergillus niger, 0.25 μg/disk, Appl'n Solvent DMSO): 11.7 mm

Molecule: CSCS(C)(=O)=O [CH3SO2CH2SCH3, 2,4-dithiapentane 2,2-dioxide]
- zone of inhibition at 100 µg/disc (Aspergillus flavus; [5]): 0 mm
- zone of inhibition at 100 µg/disc (Aspergillus niger; [6]): 0 mm

Molecule: CCSSCS(C)(=O)=O [CH3SO2CH2SSCH2CH3, 2,4,5-trithiaheptane 2,2,-dioxide]
- Diameter (mm) of clear Zone A. flavus (Aspergillus flavus; 25 μg/disk, acetone): 3.3 mm
- Diameter (mm) of clear Zone A. niger (Aspergillus niger; 25 μg/disk, acetone): 4.8 mm

Molecule: CSSCS(C)(=O)=O [CH3SO2CH2SSCH3, α-methylsulfonyl dimethyl disulphide]
- Diameter (mm) of clear Zone A. flavus (Aspergillus flavus; 25 μg/disk, acetone): 3.8 mm
- Diameter (mm) of clear Zone A. niger (Aspergillus niger; 25 μg/disk, acetone): 2.7 mm

Molecule: CSSCCOC(C)=O [CH3SSCH2CH2OC(O)CH3, 3,4-dithiapentyl acetate]
- zone of inhibition at 100 µg/disc (Aspergillus flavus; [5]): 0 mm
- zone of inhibition at 100 µg/disc (Aspergillus niger; [6]): 0 mm

Molecule: CSSCOC(=O)c1ccccc1 [CH3SSCH2OC(O)Ph, 2,3-dithiabutyl benzoate]
- zone of inhibition at 25 µg/disc (Aspergillus flavus; [3]): 8.4 mm
- zone of inhibition at 25 µg/disc (Aspergillus niger; [4]): 6.1 mm

Molecule: CSSC [CH3SSCH3, dimethyl disulphide]
- Diameter (mm) of clear Zone A. flavus (Aspergillus flavus; 100 μg/disk, acetone): 0 mm
- Diameter (mm) of clear Zone A. niger (Aspergillus niger; 100 μg/disk, acetone): 0 mm
- Antifungal activity [1]: no antifungal behaviour

Molecule: CSSc1ccccc1 [Compound C6H5SSCH3, phenyl methyl disulphide]
- zone of inhibition at 100 µg/disc (Aspergillus flavus; [5]): 0 mm
- zone of inhibition at 100 µg/disc (Aspergillus niger; [6]): 0 mm
- Antifungal activity / fungitoxicity ([1]; 100 μg/disk): no observable fungitoxicity

Molecule: CS(=O)(=O)c1ccccc1SSc1ccccc1S(C)(=O)=O [[o-CH3SO2(C6H4)S]2, o-methylsulfonylphenyl disulphide]
- zone of inhibition at 25 µg/disc (Aspergillus flavus; [3]): 3 mm
- zone of inhibition at 25 µg/disc (Aspergillus niger; [4]): 3.3 mm

Molecule: CS(=O)(=O)c1ccc(SSc2ccc(S(C)(=O)=O)cc2)cc1 [[p-CH3SO2(C6H4)S]2, p-methylsulfonylphenyl disulphide]
- zone of inhibition at 25 µg/disc (Aspergillus flavus; [3]): 6.9 mm
- zone of inhibition at 25 µg/disc (Aspergillus niger; [4]): 4 mm

Molecule: CSSc1cccc([N+](=O)[O-])c1 [m-O2N(C6H4)SSCH3, methyl m-nitrophenyl disulphide]
- zone of inhibition at 10 µg/disc (Aspergillus flavus; Aspergillus flavus, 10 μg/disk, acetone): 1.8 mm
- zone of inhibition at 10 µg/disc (Aspergillus niger; Aspergillus niger, 10 μg/disk, acetone): 1.7 mm

Molecule: COC(=O)c1ccccc1SSC [o-CH3OC(O)(C6H4)SSCH3, methyl-o(methyldithio)benzoate]
- Diameter (mm) of clear Zone A. flavus (Aspergillus flavus; 25 μg/disk, acetone): 4.3 mm
- Diameter (mm) of clear Zone A. niger (Aspergillus niger; 25 μg/disk, acetone): 2.8 mm

Molecule: Cc1ccc(S(=O)(=O)CS)cc1 [p-CH3(C6H4)SO2CH2SH, α-p-toluenesulfonyl methyl mercaptan]
- Diameter (mm) of clear Zone A. flavus (Aspergillus flavus; 100 μg/disk, acetone): 0 mm
- Diameter (mm) of clear Zone A. niger (Aspergillus niger; 100 μg/disk, acetone): 0 mm

Molecule: Cc1ccc(S(=O)(=O)Sc2ccc([N+](=O)[O-])cc2)cc1 [p-CH3(C6H4)SO2S(C6H4)NO2—p, p-Nitrophenyl p-Toluenethiosulfonate]
- Diameter (mm) of clear Zone A. flavus (Aspergillus flavus; 25 μg/disk, acetone): 2.0 mm
- Diameter (mm) of clear Zone A. niger (Aspergillus niger; 25 μg/disk, acetone): 3.0 mm

Molecule: Cc1ccc(S(=O)(=O)Sc2ccccc2)cc1 [p-CH3(C6H4)SO2S(C6H5)]
- Diameter (mm) of clear Zone A. flavus (Aspergillus flavus; 25 μg/disk, acetone): 3.3 mm
- Diameter (mm) of clear Zone A. niger (Aspergillus niger; 25 μg/disk, acetone): 4.3 mm

Molecule: COC(=O)CSS(=O)(=O)c1ccc(C)cc1 [p-CH3(C6H4)SO2SCH2CO2CH3, Carbomethoxymethyl p-Toluenethiosulfonate]
- Diameter (mm) of clear Zone A. flavus (Aspergillus flavus; 50 μg/disk, acetone): 1.7 mm
- Diameter (mm) of clear Zone A. niger (Aspergillus niger; 50 μg/disk, acetone): 2.9 mm

Molecule: CSS(=O)(=O)c1ccc(C)cc1 [p-CH3(C6H4)SO2SCH3]
- Diameter (mm) of clear Zone A. flavus (Aspergillus flavus; 25 μg/disk, acetone): 3.6 mm
- Diameter (mm) of clear Zone A. niger (Aspergillus niger; 25 μg/disk, acetone): 1.4 mm

Molecule: CS(=O)(=O)Oc1ccc(S(C)(=O)=O)cc1 [p-CH3SO2(C6H4)OSO2CH3, p-methylsulfonylphenyl methanesulfonate]
- zone of inhibition at 100 µg/disc (Aspergillus flavus; [5]): 0 mm
- zone of inhibition at 100 µg/disc (Aspergillus niger; [6]): 0 mm

Molecule: CS(=O)(=O)Sc1ccc([N+](=O)[O-])cc1 [p-CH3SO2S(C6H4)NO2, p-Nitrophenyl Methanethiosulfonate]
- Diameter (mm) of clear Zone A. flavus (Aspergillus flavus; 25 μg/disk, acetone): 1.2 mm
- Diameter (mm) of clear Zone A. niger (Aspergillus niger; 25 μg/disk, acetone): 1.9 mm

Molecule: CS(=O)(=O)Oc1ccc([N+](=O)[O-])cc1 [p-O2N(C6H4)OSO2CH3, p-nitrophenyl methanesulfonate]
- zone of inhibition at 100 µg/disc (Aspergillus flavus; [5]): 0 mm
- zone of inhibition at 100 µg/disc (Aspergillus niger; [6]): 0 mm

Molecule: Methyl methanethiosulfonate [CH3SO2SCH3]
- Diameter (mm) of clear Zone A. flavus (Aspergillus flavus; 100 μg/disk, acetone): 0 mm
- Diameter (mm) of clear Zone A. niger (Aspergillus niger; 100 μg/disk, acetone): 3.3 mm
- Antifungal activity [1]: effective against only one of the test fungi

Molecule: o-Carbomethoxyphenyl Methanethiosulfonate [o-CH3SO2S(C6H4)CO2CH3]
- Diameter (mm) of clear Zone A. flavus (Aspergillus flavus; 100 μg/disk, acetone): 0 mm
- Diameter (mm) of clear Zone A. niger (Aspergillus niger; 100 μg/disk, acetone): 0 mm
